The source of these data is PubChem BioAssay (NCI).

Among the test systems are RPMI-8226 leukemia; RXF 393 renal; HCT-116 colon; UACC-62 melanoma; KM12 colon; HS 578T breast; SK-MEL-5 melanoma; MALME-3M melanoma; NCI-H226 lung; CCRF-CEM leukemia.
Common to all, as to assay: NCI-60 cell line screen, 48 h

Where “and” joins values, the source holds several entries; their conditions need not be identical. Equal entries are not always repeated.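 Five concentrations, 48 hours, 96-well plates. GI50 = concentration required for 50% inhibition of growth. TGI: total growth inhibition.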

Take `c1ccc2c(CN3CCC(C4CCN(Cc5cccc6ccccc56)CC4)CC3)cccc2c1`: the TGI in the test on RPMI-8226 leukemia was 15 µM and 10.9 µM; in the test with RXF 393 renal, 26.9 µM and 43.3 µM; with HCT-116 colon, 21.1 µM and > 58.2 µM; in the test on UACC-62 melanoma, 17.5 µM and 20.9 µM; in the test on KM12 colon, 33.7 µM and > 100 µM; in the test with HS 578T breast, > 100 µM. The TGI was 14.2 µM and 9.41 µM with SK-MEL-5 melanoma; 4.87 µM and 14.6 µM with MALME-3M melanoma; > 100 µM in the test with NCI-H226 lung; 65.3 µM and > 31.6 µM with CCRF-CEM leukemia. Besides, the GI50 was 7.28 µM and 16.3 µM in the test with HCT-116 colon; 10.7 µM and 33.5 µM in the test on KM12 colon; 31.7 µM and 96.8 µM in the test on NCI-H226 lung; 13.7 µM and 4 µM with CCRF-CEM leukemia.
As to `O=C1COCCN1c1ccc(NCc2cn(C(=O)c3ccc(Cl)cc3)c3ccccc23)cc1`, the GI50 in the test with RPMI-8226 leukemia is 2.13 µM; in the test with RXF 393 renal, 3.09 µM; in the test with HCT-116 colon, 0.247 µM; in the test with UACC-62 melanoma, 0.396 µM; with KM12 colon, 13.7 µM; in the test on HS 578T breast, 3.86 µM. For the same molecule, the GI50 in the test with SK-MEL-5 melanoma is 4.1 µM; in the test on MALME-3M melanoma, 7.96 µM; in the test with NCI-H226 lung, 0.159 µM; in the test on CCRF-CEM leukemia it was 5.62 µM. The TGI in the test on RPMI-8226 leukemia was 15.8 µM; in the test with RXF 393 renal it was 18.3 µM; with HCT-116 colon, 19.8 µM; in the test with UACC-62 melanoma, 3.37 µM; in the test on KM12 colon, > 100 µM; in the test on HS 578T breast it was 39.1 µM. Moreover, the TGI with SK-MEL-5 melanoma is 16.3 µM; in the test with MALME-3M melanoma it was 24.9 µM; with NCI-H226 lung it was 0.543 µM; in the test on CCRF-CEM leukemia, > 100 µM.
`Cn1ncnc1C1c2n[nH]c(=O)c3cc(F)cc(c23)NC1c1ccc(F)cc1` (stereo not drawn): the GI50 in the test with RPMI-8226 leukemia was > 100 µM; in the test on RXF 393 renal it was 22.2 µM; in the test with HCT-116 colon, 25.8 µM; with UACC-62 melanoma, > 100 µM; in the test with KM12 colon, > 100 µM; in the test with HS 578T breast, > 100 µM. Besides, the GI50 was > 100 µM in the test on SK-MEL-5 melanoma, > 100 µM in the test on MALME-3M melanoma, > 100 µM with NCI-H226 lung and 3.13 µM in the test on CCRF-CEM leukemia. The TGI in the test with RPMI-8226 leukemia, with RXF 393 renal, in the test with HCT-116 colon, in the test with UACC-62 melanoma, with KM12 colon and in the test on HS 578T breast was > 100 µM in each case. The TGI in the test on SK-MEL-5 melanoma, in the test with MALME-3M melanoma, in the test with NCI-H226 lung and in the test with CCRF-CEM leukemia was > 100 µM throughout.
Take `O=C1NC(c2ccccc2)N=C2Oc3ccccc3C=C12` (stereo not drawn): the TGI was > 100 µM in the test on RPMI-8226 leukemia; > 100 µM in the test with RXF 393 renal; > 100 µM in the test with HCT-116 colon; > 100 µM in the test on UACC-62 melanoma; > 22.8 µM in the test with KM12 colon; 7.06 µM in the test on HS 578T breast. Besides, the TGI was > 100 µM in the test with SK-MEL-5 melanoma, > 100 µM with MALME-3M melanoma, 12.8 µM in the test with NCI-H226 lung and 2.65 µM in the test with CCRF-CEM leukemia.
Take `COC(=O)Nc1nc2ccc(S(=O)(=O)c3ccc(NC(=O)Nc4cc(C(F)(F)F)ccc4F)cc3)cc2[nH]1`: the GI50 with RPMI-8226 leukemia is > 25 µM; in the test with RXF 393 renal, > 25 µM; in the test with HCT-116 colon, > 25 µM; in the test on UACC-62 melanoma, > 25 µM; in the test with KM12 colon it was > 21.1 µM; in the test with HS 578T breast, > 25 µM. The GI50 with SK-MEL-5 melanoma, in the test with MALME-3M melanoma, in the test with NCI-H226 lung and in the test with CCRF-CEM leukemia was > 25 µM each time. Besides, the TGI in the test on RPMI-8226 leukemia, in the test on RXF 393 renal, in the test with HCT-116 colon, in the test with UACC-62 melanoma, in the test with KM12 colon and with HS 578T breast was > 25 µM in each case. In addition, the TGI in the test with SK-MEL-5 melanoma, with MALME-3M melanoma, in the test with NCI-H226 lung and in the test with CCRF-CEM leukemia was > 25 µM in each case.
As to `COc1ccc2c(c1)C=C1CSCC3=Cc4cc(OC)ccc4OC13O2`, the GI50 was 0.368 µM in the test with RPMI-8226 leukemia; 0.216 µM with RXF 393 renal; 0.471 µM with HCT-116 colon; 0.783 µM with UACC-62 melanoma; 0.513 µM in the test with KM12 colon; 0.313 µM with HS 578T breast. The GI50 is 0.41 µM with SK-MEL-5 melanoma, 0.473 µM in the test on MALME-3M melanoma and 0.328 µM in the test with CCRF-CEM leukemia. Besides, the TGI in the test with RPMI-8226 leukemia is > 34.4 µM; in the test on RXF 393 renal it was 0.645 µM; in the test on HCT-116 colon, > 100 µM; with UACC-62 melanoma it was > 100 µM; with KM12 colon, > 100 µM; in the test on HS 578T breast, > 100 µM. Besides, the TGI with SK-MEL-5 melanoma was > 100 µM; in the test on MALME-3M melanoma, > 100 µM; with NCI-H226 lung it was > 100 µM; with CCRF-CEM leukemia, > 85.3 µM.
Regarding `NCCSC(C[N+](=O)[O-])c1ccccc1Cl` (stereo not drawn), the GI50 in the test with RPMI-8226 leukemia was 0.727 µM; in the test on RXF 393 renal, 2.27 µM; in the test on HCT-116 colon it was 1.18 µM; in the test with UACC-62 melanoma, 13.2 µM; in the test with KM12 colon, 1.82 µM; with HS 578T breast, 2.46 µM. Besides, the GI50 is 3.03 µM in the test with SK-MEL-5 melanoma, 16.3 µM in the test with MALME-3M melanoma, 2.28 µM in the test on NCI-H226 lung and 3.8 µM with CCRF-CEM leukemia. Also, the TGI was 5.3 µM in the test on RPMI-8226 leukemia; 11.1 µM with RXF 393 renal; 3.08 µM in the test with HCT-116 colon; 26.3 µM with UACC-62 melanoma; 3.42 µM in the test with KM12 colon; 7.63 µM in the test on HS 578T breast. Further, the TGI is 10.1 µM in the test on SK-MEL-5 melanoma, 36.7 µM in the test on MALME-3M melanoma, 5.55 µM in the test with NCI-H226 lung and > 86.7 µM with CCRF-CEM leukemia.
As for `Oc1ccc(O)c2c1C1(Cl)C(Cl)=C(Cl)C2(Cl)C1(Cl)Cl`, the GI50 in the test on RPMI-8226 leukemia is 4.82 µM; with RXF 393 renal it was 3.31 µM; in the test on HCT-116 colon, 3.07 µM; in the test on UACC-62 melanoma, 4.96 µM; with KM12 colon, 2.44 µM; with HS 578T breast, 2.07 µM. Further, the GI50 with SK-MEL-5 melanoma is 5.09 µM; in the test on MALME-3M melanoma it was 2.31 µM; in the test with NCI-H226 lung it was 10.7 µM; in the test with CCRF-CEM leukemia it was 4.14 µM. The TGI worked out at 63.3 µM with RPMI-8226 leukemia; 11.2 µM in the test on RXF 393 renal; 12.8 µM with HCT-116 colon; 19.5 µM with UACC-62 melanoma; 7.62 µM with KM12 colon; 8.09 µM with HS 578T breast. For the same molecule, the TGI in the test with SK-MEL-5 melanoma was 17 µM; with MALME-3M melanoma, 9.95 µM; in the test on NCI-H226 lung, 41 µM; in the test on CCRF-CEM leukemia it was > 100 µM.
